Experimental data reported in publication PMC12295927, “Design, Synthesis, and Testing of 1,2,3-Triazolo-Quinobenzothiazine Hybrids for Cytotoxic and Immunomodulatory Activity” (International Journal of Molecular Sciences, 2025).

Assays:
BEAS-2B cells = test: DAPI staining for nuclear morphology and apoptosis, BEAS-2B; format: cell-based, Human; settings: 100 μM, 24 h
Protocol: (§1) The BEAS-2B, NHDF, HCT116, MCF7, SH-SY5Y, A549 cell lines studied were cultured in DMEM medium supplemented with 10% fetal bovine serum (FBS) and 1% penicillin/streptomycin solution. Cells were seeded at 1 × 10^4 per well in 96-well plates and incubated for 24 h under standard culture conditions: temperature 37 °C, 5% CO2, 95% humidity. After 24 h, compounds from the MJ1–MJ20 group were added to individual wells at different concentrations (6.25 µM, 12.5 µM, 25 µM, 50 µM, 100 µM). The control consisted of cells grown only in medium without the addition of chemical compounds. After 24 h of incubation, cells were observed under a microscope (JuLI™ FL Live fluorescence microscope from NanoEntek, Martinsried, Germany), documenting morphological changes. Observations included visual assessments of confluence, cell shape, arrangement, and interaction with the substrate. The Supplementary Materials include a comprehensive collection of microscopic images showing the morphology of the tested cell lines (BEAS-2B, NHDF, HCT116, MCF7, SH-SY5Y, A549) after 24 h of incubation with compounds MJ1–MJ20. These images illustrate the effects of the compounds on cell shape, density, and adhesion. The images are provided as a separate PDF file for further reference. For apoptosis observations, the samples of BEAS-2B and HCT116 cells were additionally fixed with 4% paraformaldehyde (PFA) after 24 h of incubation with, or without selected compounds (Section 2.6) and DAPI stained for apoptotic bodies visualization (Fluoromount-G™ medium with DAPI dye; Thermo Fisher Scientific, Waltham, MA, USA). The samples were visualized using fluorescent microscopy AXIO IMAGER M1 by ZEISS, DAPI channel and 20x magnification. The percent of counted cells with apoptotic nucleus was defined in comparison to all visualized events.
(§2) BEAS-2B and HCT116 cells were seeded into culture plates at 5 × 10^3 cells per well using 0.5 mL of RPMI-1640 medium (for BEAS-2B) or DMEM (for HCT116). The plates were incubated for 24 h at 37 °C in an atmosphere containing 5% CO2. After incubation, the medium was removed and compounds MJ2, MJ8, MJ15, and MJ19 were added in the appropriate medium at a concentration of 100 μM. The plates were incubated for 24 h at 37 °C in an atmosphere containing 5% CO2. After incubation, the medium was removed, and 500 µL of 4% paraformaldehyde (PFA) was added to each well to fix the cells. Incubation continued for 10 min at room temperature. After removal of the PFA, the wells were rinsed with 500 µL of PBS (5 min of incubation) and then with distilled water. The cells were allowed to dry at room temperature. After drying, the cells were stained with DAPI. Observations were made using a fluorescence microscope AXIO IMAGER M1 by ZEISS at 20x magnification.

HCT116 cells = test: DAPI staining for nuclear morphology and apoptosis, HCT116; format: cell-based, Human; settings: HCT116, 100 μM, 24 h
Protocol: as §1, §2

IL8 gene [1] = test: RT-qPCR IL8 gene expression in BEAS-2B; format: cell-based; settings: Homo sapiens, 24 h, reference gene RPL41, vs untreated control, read-out: Relative level of expression, IL8 gene
Protocol: (§3) Real-time polymerase chain reaction was performed for the reference gene RPL41 (ribosomal protein L41) and the tested genes: BCL2, AIFM2, MDM2, IL6 and IL8. […] The BEAS-2B line was selected for the experiment. The expression level of selected genes was measured after 24 h of incubation with the tested substances MJ1–MJ20 at a concentration of 100 μM (Table 3).
(§4) The RT-qPCR experiment was performed for the BEAS-2B cell line. In this experiment, the IL6 and IL8 genes were studied and RPL41 was used as a reference gene (Figure 17 and Figure 18).
(§5) Gene expression studies used quantitative RT-qPCR to assess the effect of the tested quinobenzothiazines (MJ1–MJ20) on the expression of apoptosis-related genes (BCL2, AIFM2, MDM2) and pro-inflammatory cytokines (IL6, IL8) (Table 4).
(§6) BEAS-2B and HCT116 cells were seeded in 6-well plates at 2 × 10^5 cells per well and cultured in RPMI-1640 (BEAS-2B) or DMEM (HCT116) medium supplemented with 10% FBS and 1% penicillin/streptomycin at 37 °C, 5% CO2 and 95% humidity. After 24 h of incubation, the tested compounds were added at a concentration of 100 µM. After 24 h, the medium was removed from the cells, washed with PBS solution, 0.5 mL of trypsin was added per well and after 5 min it was neutralized with medium. The obtained cell suspension was centrifuged for 3 min at 2000 rpm, the supernatant was removed, and the obtained pellet was suspended in 400 µL of phenozol. Samples were frozen at −20 °C and stored until further experiment and RNA isolation.
(§7) Total RNA was isolated from cells using the A&A Biotechnology Total RNA Mini kit according to the manufacturer’s protocol. RNA quality and quantity were assessed using a NanoDrop 2000 spectrophotometer at 260/280 nm. Reverse transcription was performed using the protocol (EURx NG dART RT Kit) to obtain cDNA. After incubation, samples were placed in a freezer (−20 °C) and stored until further analysis.
(§8) The experiment was performed according to the protocol (Brilliant III Ultra Fast SYBR® Green QPCR Master Mix, Quick Reference Guide for the Bio-Rad CFX96 Real-Time PCR Detection System). RT-qPCR reaction was performed using specific primers for target genes (BCL2, AIFM2, MDM2, IL6, IL8). Gene expression was normalized to the expression of the reference gene RPL41. Reaction profiles and results were performed using Bio-Rad CFX Maestro 1.1 software from Bio-Rad. Analysis and calculations of the results obtained during RT-qPCR were performed using Microsoft Excel.
(§9) The results were analyzed using the R = 2^−ΔΔCt method, which allows for determining the relative level of gene expression (R) compared to the control. Each experiment was performed in three technical and biological replicates. RT-qPCR allowed for precise assessment of changes in the expression of genes related to the processes of apoptosis and inflammatory response under the influence of quinobenzothiazines, which allowed for identifying their potential mechanisms of action at the molecular level.

IL6 gene [2] = test: RT-qPCR IL6 gene expression in BEAS-2B; format: cell-based, Human; settings: 24 h; for fold induction at 100 µM: Homo sapiens, reference gene RPL41, vs untreated control, read-out: Relative level of expression, IL6 gene
Protocol: as §3, §4, §5, §6, §7, §8, §9

IL8 gene [3] = test: RT-qPCR IL8 gene expression in HCT116; format: cell-based, Human; settings: HCT116, 100 μM, 24 h, vs untreated control
Protocol: (§10) In each of the four compound groups: MJ1–MJ5, MJ6–MJ10, MJ11–MJ15, and MJ16–MJ20, one compound was selected based on the best IC50 value and a distinctive gene expression profile (BCL2, MDM2, AIFM2, IL6, IL8).
as §5
(§11) BEAS-2B and HCT116 cells were seeded in 6-well plates at 2 × 10^5 cells per well and cultured in RPMI-1640 (BEAS-2B) or DMEM (HCT116) medium supplemented with 10% FBS and 1% penicillin/streptomycin at 37 °C, 5% CO2 and 95% humidity. After 24 h of incubation, the tested compounds were added at a concentration of 100 µM. After 24 h, the medium was removed from the cells, washed with PBS solution, 0.5 mL of trypsin was added per well and after 5 min it was neutralized with medium. […]
(§12) Total RNA was isolated from cells using the A&A Biotechnology Total RNA Mini kit according to the manufacturer’s protocol. RNA quality and quantity were assessed using a NanoDrop 2000 spectrophotometer at 260/280 nm. […]
(§13) The results were analyzed using the R = 2^−ΔΔCt method, which allows for determining the relative level of gene expression (R) compared to the control. […]

IL6 gene [4] = test: RT-qPCR IL6 gene expression in HCT116; format: cell-based, Human; settings: HCT116, 100 μM, 24 h, vs untreated control
Protocol: as §10, §5, §11, §12, §13

AIFM2 gene = test: RT-qPCR AIFM2 gene expression in HCT116; format: cell-based, Human; settings: HCT116, 100 μM, 24 h, vs untreated control
Protocol: as §10, §5, §11, §12, §13

MDM2 gene = test: RT-qPCR MDM2 gene expression in HCT116; format: cell-based, Human; settings: HCT116, 100 μM, 24 h, vs untreated control
Protocol: as §10, §5, §11, §12, §13

| SMILES | Apoptotic changes in cell nuclei (DAPI) (BEAS-2B cells) | Apoptotic changes in cell nuclei (DAPI) (HCT116 cells) | fold induction at 100 µM (IL8 gene [1]) | fold induction at 100 µM (IL6 gene [2]) | Relative level of expression, IL8 gene (IL8 gene [3]) | Relative level of expression, IL6 gene (IL6 gene [4]) | Relative level of expression, AIFM2 gene (AIFM2 gene) | Relative level of expression, MDM2 gene (MDM2 gene) | IL6 expression increase (IL6 gene [2]; 100 μM, compared to control) [fold] |
| --- | --- | --- | --- | --- | --- | --- | --- | --- | --- |
| Fc1ccc(Cn2cc(CN3c4ccccc4Sc4cc5ccccc5nc43)nn2)cc1 [MJ2, 6-((1-(4-Fluorobenzyl)-1H-1,2,3-triazol-4-yl)methyl)-quino[3,2-b]benzo[1,4]thiazine] | no significant apoptotic changes | no significant apoptotic changes | 0.4 | 1.7 |  |  |  |  |  |
| Fc1ccc2c(c1)Sc1cc3ccccc3nc1N2Cc1cn(Cc2ccc(Cl)cc2)nn1 [MJ8, 9-Fluoro-6-[(1-(4-chlorobenzyl)-1H-1,2,3-triazol-4-yl)methyl]-quino[3,2-b]benzo-[1,4]thiazine] | no significant apoptotic changes | no significant apoptotic changes | 4 | 9.9 | 6.95 | 6.55 |  |  |  |
| Clc1ccc2c(c1)Sc1cc3ccccc3nc1N2Cc1cn(CSc2ccccc2)nn1 [MJ15, 9-Chloro-6-((1-((phenylthio)methyl)-1H-1,2,3-triazol-4-yl)methyl)-quino[3,2-b]benzo[1,4]thiazine] | no significant apoptotic changes | no significant apoptotic changes | 5 | 13 |  | 5.56 | 4.94 | 3.73 |  |
| CSc1ccc2c(c1)Sc1cc3ccccc3nc1N2Cc1cn(Cc2ccc(C#N)cc2)nn1 [MJ19, 4-((4-((9-Methylthioquino[3,2-b]benzo[1,4]thiazin-6-yl)methyl)-1H-1,2,3-triazol-1-yl)methyl)benzonitrile] | no significant apoptotic changes | no significant apoptotic changes | 12.8 | 57.2 |  |  |  |  | 57.2 |
